Results published in patent publication US20160200757A1, “TYLOSIN A ANALOGS AND DERIVATIVES” (AbbVie Inc., priority 2014, published 2016).
In brackets after ≈: the same amount, converted by molar mass.

What was measured:
E. faecalis ATCC29212 = experiment: Broth microdilution MIC; assay type: cell-based; settings: Enterococcus faecalis, 35° C., approximately 20 hours
Procedure: (§1) Minimum inhibitory concentration (“MIC”) values for the isolates were determined using a broth microdilution method. The wells of a standard 96-well microdilution plate (Costar 3795, Corning Inc., Corning, N.Y.) were filled with 150 μL of an appropriate diluent. For test compounds supplied as powders, Column 1 was filled with 300 μL of either the investigational or comparator agents at the appropriate stock concentration (40× the highest test concentration). A Biomek 200 was used to make eleven 2-fold serial dilutions to create a “mother plate”. For compounds supplied as DMSO stocks, compounds were diluted to 50× the highest test concentrations and 2-fold serial dilutions were made manually.
(§2) For compounds supplied as solids, “daughter plates” were loaded with 185 μL using the Multidrop 384. These daughter plates were prepared on the Biomek F/X instrument which transferred 5 μL of drug solution from each well of the mother plate to each corresponding well of each daughter plate in a single step. For compounds supplied as DMSO stock, daughter plates were filled with 90 μL of media and 2 μL of drug solution from each well of the mother plate was added to each corresponding well manually.
(§3) A suspension of standardized inoculum for each organism, equivalent to a 0.5 McFarland standard, was diluted 1:10 in Mueller Hinton II broth resulting in a final concentration of approximately 5×10^5 CFU/mL during testing. Inocula were transferred to compartments of sterile reservoirs divided by length. The Biomek 2000 was used to inoculate all plates. Daughter plates were placed on the Biomek 2000 in reverse orientation so that plates were inoculated from low to high drug concentration. The Biomek 2000 delivered 10 μL of standardized inoculum into each well of the appropriate daughter plate. The final concentration of DMSO (if used as a solvent) in the test wells was 2.5%.
(§4) Plates were stacked 3 high, covered with a lid on the top plate, placed into plastic bags, and incubated at 35° C. for approximately 20 hours. […] MIC values were read where visible growth of the organism was inhibited.

S. aureus ATCC29213 = experiment: Broth microdilution MIC; assay type: cell-based; settings: Staphylococcus aureus, 35° C., approximately 20 hours
Procedure: as §1, §2, §3, §4

S. pneumonia ATCC49619 = experiment: Broth microdilution MIC; assay type: cell-based; settings: Streptococcus pneumoniae, 35° C., approximately 20 hours
Procedure: as §1, §2, §3, §4

H. influenza ATCC49247 = experiment: Broth microdilution MIC; assay type: cell-based; settings: Haemophilus influenzae, 35° C., approximately 20 hours
Procedure: as §1, §2, §3, §4

S. epidermis ATCC49134 = experiment: Broth microdilution MIC; assay type: cell-based; settings: Staphylococcus epidermidis, 35° C., approximately 20 hours
Procedure: as §1, §2, §3, §4

[1] = Pharmacokinetic study, oral dosing in Sprague-Dawley rats (AUC/D); assay type: in vivo; settings: dosed orally in rats; dose-normalized plasma AUC
Procedure: (§5) Compounds were dosed orally to Sprague-Dawley rats, using appropriate formulations and doses. Serial blood samples were collected at selected time points post-dosing. Plasma was separated from the blood by centrifugation. 25 μL of plasma (sample, standard or QC) was combined with 25 μL of internal standard and 250 μL acetonitrile. Following vortexing to mix, the plates were centrifuged to separate the precipitated proteins. A 50 μL aliquot of the supernatant was transferred to a clean 96-well plate and diluted with 100 μL 0.1% formic acid. Stock standards were prepared in DMSO, with intermediate dilutions in acetonitrile:water (50:50, by volume). Samples were analyzed by LC-MS. The drug level curves were used to calculate dose-normalized area under the curve (AUC/D) data, which are reported as μg-hr/mL per mg/kg.

[2] = Parent vs. metabolite levels in plasma after oral dosing in rats; assay type: in vivo; settings: oral 20 mg/kg, based on AUC(0-∞), 10 plasma samples over 12 hours, vs 4″-debenzylated metabolite
Procedure: Pharmacokinetic properties of compounds having three non-hydrogen substituents at the alpha-position of the ester (i.e., a tri-substituted ester) were further examined. A compound having a 4″-tri-substituted ester moiety (Compound 14) was compared to a di-substituted control compound. The compounds were dosed orally, 20 mg/kg, in rats.
Pharmacokinetic properties of compounds having a 4″-benzyl moiety were further examined. A compound having a 4″-halobenzyl moiety (Compound 10) was compared to a compound having an unsubstituted 4″-benzyl moiety. The compounds were dosed orally, 20 mg/kg, in rats.

[3] = Pharmacokinetic study, oral dosing in BALB/c mice (AUC/D); assay type: in vivo; settings: dosed orally in mice; when Compound 43 was dosed, levels of Compound 19 were measured; when Compound 46 was dosed, levels of Compound 10
Procedure: as §5, with “Alternatively, compounds” for “Compounds”, “BALB/c mice,” for “Sprague-Dawley rats,”
When Compound 43 was dosed, levels of Compound 19 were measured; when Compound 46 was dosed, levels of Compound 10 were measured. Thus, Compounds 43 and 46 serve as prodrugs for Compounds 19 and 10, respectively. Administration of 4′″-modified prodrugs provided greater exposure to the 4′″ deacylated metabolite as compared to administration of the corresponding metabolite itself. […]

[4] = system: Staphylococcus aureus ATCC 25923; experiment: Agar disc diffusion assay (zone of inhibition); assay type: cell-based; settings: 10 μg on 7 mm paper disc (antibacterial standard)
Procedure: Antibacterial tests were performed on a series of tylosin A derivatives via the ‘agar disc diffusion’ assay. This assay is employed to determine the sensitivity of pathogens to chemical entities under investigation and is a standardized procedure outlined in 1961 by the World Health Organization.
Bacteria tested were a standard gram positive organism; Staphylococcus aureus ATCC 25923 (available from the American Type Culture Collection).
Colonies of bacteria are dispensed into liquid Mueller-Hinton II broth (available from Becton, Dickinson and Company), agitated and then streaked onto prepared Mueller-Hinton agar plates. Bacteria were allowed to grow for 16 hours at 37 degrees C. A sterile loupe was used to select 4-5 isolates from the cultures thus grown, and dispensed into Mueller-Hinton broth. […]
To obtain a dose response curve against Staphylococcus aureus, 20 μL (20 nanomoles) of each tylosin A derivative to be tested as obtained from the company compound repository at 1 mM stock solution in DMSO was dispensed onto a 7 mm blank paper disc (available from BBL, Le Pont du Claire, France). […] At this time, the ‘zone of inhibition’ around each 7 mm paper disc (inclusive of the disc itself) was measured and recorded in Table 6 below.

What does the source list for `CC[C@H]1OC(=O)C[C@@H](O)[C@H](C)[C@@H](O[C@@H]2O[C@H](C)[C@@H](O[C@H]3C[C@@](C)(O)[C@@H](OCc4ccccc4)[C@H](C)O3)[C@H](N(C)C)[C@H]2O)[C@@H](CC=O)C[C@@H](C)C(=O)/C=C/C(C)=C/[C@@H]1CO[C@@H]1O[C@H](C)[C@@H](O)[C@@H](OC)[C@H]1OC` [Compound G, Tylosin A 4″ O-Benzyl]?
MIC (E. faecalis ATCC29212): 2 µg/mL (≈ 1.99 µM); MIC (S. aureus ATCC29213): 4 µg/mL (≈ 3.98 µM); MIC (S. pneumonia ATCC49619): 0.25 µg/mL (≈ 0.248 µM); MIC (H. influenza ATCC49247): 16 µg/mL (≈ 15.9 µM); MIC (S. epidermis ATCC49134): 2 µg/mL (≈ 1.99 µM); AUC/D [1]: 0.05 μg-hr/mL per mg/kg; Parent % [2]: 95%

What does the source list for `CC[C@H]1OC(=O)C[C@@H](O)[C@H](C)[C@@H](O[C@@H]2O[C@H](C)[C@@H](O[C@H]3C[C@@](C)(O)[C@@H](O)[C@H](C)O3)[C@H](N(C)C)[C@H]2O)[C@@H](CC=O)C[C@@H](C)C(=O)/C=C/C(C)=C/[C@@H]1CO[C@@H]1O[C@H](C)[C@@H](O)[C@@H](OC)[C@H]1OC` [Tylosin A, 2-((4R,5S,6S,7R,9R,11E,13E,15R,16R)-6-(((2R,3R,4R,5S,6R)-5-(((2S,4R,5S,6S)-4,5-dihydroxy-4,6-dimethyltetrahydro-2H-pyran-2-yl)oxy)-4-(dimethylamino)-3-hydroxy-6-methyltetrahydro-2H-pyran-2-yl)oxy)-16-ethyl-4-hydroxy-15-((((2R,3R,4R,5R,6R)-5-hydroxy-3,4-dimethoxy-6-methyltetrahydro-2H-pyran-2-yl)oxy)methyl)-5,9,13-trimethyl-2,10-dioxooxacyclohexadeca-11,13-dien-7-yl)acetaldehyde]?
MIC (E. faecalis ATCC29212): 1 µg/mL (≈ 1.09 µM); MIC (S. aureus ATCC29213): 2 µg/mL (≈ 2.18 µM); MIC (S. pneumonia ATCC49619): 0.25 µg/mL (≈ 0.273 µM); MIC (H. influenza ATCC49247): 16 µg/mL (≈ 17.5 µM); MIC (S. epidermis ATCC49134): 1 µg/mL (≈ 1.09 µM); AUC/D [1]: 0.0097 μg-hr/mL per mg/kg; AUC/D [3]: 0.0054 μg-hr/mL per mg/kg

With Gentamicin as the molecule, how does the Zone of inhibition [4] read?
The Zone of inhibition was 23 mm.
